In DBAASP:
Values after ≈ are worked out from the molar mass of the structure shown.

Columns and labels:
Assay in all cases: ≥ marks a high value that may be exact or a test limit, other limits are often not marked, values filed in µg/mL are converted to µM
[1] = test system: Staphylococcus aureus ATCC 25923
[2] = test system: Escherichia coli ATCC 25922
[3] = test system: Candida albicans ATCC 18804
[4] = test system: Escherichia coli JCM 1649
Bacillus cereus IFO 3457 = test system: Bacillus cereus IFO 3457
Escherichia coli CR3 = test system: Escherichia coli CR3
[5] = test system: Salmonella enterica subsp. enterica serovar Typhimurium ATCC 14028
[6] = test system: Staphylococcus aureus Smith
[7] = test system: Escherichia coli ATCC 39188
[8] = test system: Salmonella enterica subsp. enterica serovar Enteritidis ATCC 1891
[9] = test system: Bacillus subtilis ATCC 6633
Escherichia coli CE273 = test system: Escherichia coli CE273
[10] = test system: Bacillus subtilis IFO 13722
[11] = test system: Staphylococcus aureus JCM 2431
[12] = test system: Vibrio parahaemolyticus IFO12711
[13] = test system: Staphylococcus aureus FDA 209P JC-1
[14] = test system: Escherichia coli NIHJ JC-2
[15] = test system: Staphylococcus aureus IFO 13276
Proteus vulgaris = test system: Proteus vulgaris
[16] = test system: Pseudomonas aeruginosa KCTC 1637
[17] = test system: Bacillus megaterium KCTC 1096
[18] = test system: Escherichia coli KCTC 1682
[19] = test system: Bacillus subtilis KCTC 1918
[20] = test system: Staphylococcus aureus KCTC 1621
Escherichia coli E44813 = test system: Escherichia coli E44813
[21] = test system: Streptococcus pyogenes KCTC 3096
[22] = test system: Proteus vulgaris KCTC 2433
[23] = test system: Salmonella typhimurium KCTC 1926
[24] = test system: Salmonella typhimurium SL1344
[25] = test system: Escherichia coli ATCC 12795
[26] = test system: Escherichia coli CCARM 1238
[27] = test system: Salmonella enterica subsp. enterica serovar Choleraesuis C78-1
Pasteurella multocida = test system: Pasteurella multocida
[28] = test system: Listeria monocytogenes CICC 21533
[29] = test system: Salmonella typhimurium CCARM 8009
[30] = test system: Salmonella typhimurium CCARM 8013
[31] = test system: Bacillus subtilis CICC 24434
[32] = test system: Pasteurella multocida C48-3
[33] = test system: Staphylococcus epidermidis LY8
[34] = test system: Escherichia coli CCARM 1229
[35] = test system: Pseudomonas aeruginosa ATCC 15692

CC[C@H](C)[C@H](NC(=O)[C@H](C)NC(=O)[C@H](CCC(=O)O)NC(=O)[C@H](CO)NC(=O)[C@@H](N)Cc1ccccc1)C(=O)N[C@@H](CCCCN)C(=O)N[C@@H](CCCCN)C(=O)N[C@H](C(=O)N[C@H](C(=O)N[C@@H](CC(=O)O)C(=O)N[C@@H](Cc1ccccc1)C(=O)N[C@@H](CC(C)C)C(=O)NCC(=O)N[C@@H](CCC(=O)O)C(=O)NCC(=O)N[C@@H](CC(C)C)C(=O)N[C@@H](Cc1ccccc1)C(=O)N[C@@H](CC(=O)O)C(=O)N[C@H](C(=O)N[C@H](C(=O)N[C@@H](CCCCN)C(=O)N[C@@H](CCCCN)C(=O)N[C@H](C(=O)N[C@@H](C)C(=O)N[C@@H](CCC(=O)O)C(=O)N[C@@H](CO)C(=O)N[C@@H](Cc1ccccc1)C(=O)O)[C@@H](C)CC)[C@@H](C)CC)[C@@H](C)CC)[C@@H](C)CC)[C@@H](C)CC [FSEAIKKIIDFLGEGLFDIIKKIAESF]
MIC [1]: > 128 µM
MIC [2]: 128 µM (≈ 393 µg/mL)
MIC [3]: ≥ 128 µM

CC[C@H](C)[C@H](NC(=O)CNC(=O)[C@H](CCCCN)NC(=O)[C@H](Cc1c[nH]c2ccccc12)NC(=O)[C@H](CC(N)=O)NC(=O)[C@@H](N)CCCCN)C(=O)N[C@@H](C)C(=O)NCC(=O)N[C@@H](CCSC)C(=O)N[C@@H](C)C(=O)N[C@@H](CCCCN)C(=O)N[C@@H](CCCCN)C(=O)N[C@@H](CC(C)C)C(=O)N[C@@H](CC(C)C)C(=O)NCC(=O)N[C@@H](CCCCN)C(=O)N[C@@H](CC(N)=O)C(=O)N[C@@H](Cc1c[nH]c2ccccc12)C(=O)N[C@@H](CCCCN)C(=O)N[C@@H](CC(C)C)C(=O)N[C@@H](CCSC)C(=O)O [KNWKGIAGMAKKLLGKNWKLM]
MIC [4]: 6.3 µM (≈ 15.2 µg/mL)
MIC (Bacillus cereus IFO 3457): 3.1 µM (≈ 7.49 µg/mL)
MIC (Escherichia coli CR3): 6.3 µM (≈ 15.2 µg/mL)
MIC [5]: 6.3 µM (≈ 15.2 µg/mL)
MIC [6]: 6.3 µM (≈ 15.2 µg/mL)
MIC [7]: 3.1 µM (≈ 7.49 µg/mL)
MIC [8]: 6.3 µM (≈ 15.2 µg/mL)
MIC [9]: 3.1 µM (≈ 7.49 µg/mL)
MIC (Escherichia coli CE273): 3.1 µM (≈ 7.49 µg/mL)
MIC [10]: 6.3 µM (≈ 15.2 µg/mL)
MIC [11]: 12.5 µM (≈ 30.2 µg/mL)
MIC [12]: ≥ 50 µM
MIC [13]: 1.6 µM (≈ 3.87 µg/mL)
MIC [14]: 3.1 µM (≈ 7.49 µg/mL)
MIC [15]: 25 µM (≈ 60.4 µg/mL)

CC[C@H](C)[C@H](NC(=O)[C@H](CCCCN)NC(=O)[C@H](CCCCN)NC(=O)[C@H](Cc1ccccc1)NC(=O)[C@H](CC(C)C)NC(=O)[C@H](CCCCN)NC(=O)[C@H](Cc1c[nH]c2ccccc12)NC(=O)[C@@H](N)CCCCN)C(=O)N1CCC[C@H]1C(=O)N[C@@H](CC(C)C)C(=O)N[C@@H](CCCCN)C(=O)N[C@@H](CCCCN)C(=O)N[C@@H](Cc1ccccc1)C(N)=O [KWKLFKKIPLKKF]
MIC (Proteus vulgaris): 3.12 µM (≈ 5.32 µg/mL)
MIC [16]: 12.5 µM (≈ 21.3 µg/mL)
MIC [17]: 3.12 µM (≈ 5.32 µg/mL)
MIC [18]: 12.5 µM (≈ 21.3 µg/mL)
MIC [19]: 1.56 µM (≈ 2.66 µg/mL)
MIC [20]: 12.5 µM (≈ 21.3 µg/mL)

CC[C@H](C)[C@H](NC(=O)[C@@H](NC(=O)[C@@H](N)CCCN=C(N)N)[C@@H](C)CC)C(=O)N[C@@H](CC(=O)O)C(=O)N[C@@H](CC(C)C)C(=O)N[C@@H](CC(C)C)C(=O)N[C@@H](Cc1c[nH]c2ccccc12)C(=O)N[C@@H](CCCN=C(N)N)C(=O)N[C@H](C(=O)N[C@@H](CCCN=C(N)N)C(=O)N[C@@H](CCCN=C(N)N)C(=O)N1CCC[C@H]1C(=O)N[C@@H](CCC(N)=O)C(=O)N[C@@H](CCCCN)C(=O)N1CCC[C@H]1C(=O)N[C@@H](CCCCN)C(=O)N[C@@H](Cc1ccccc1)C(=O)N[C@H](C(=O)N[C@H](C(=O)N[C@H](C(=O)N[C@@H](Cc1c[nH]c2ccccc12)C(=O)N[C@H](C(=O)N[C@@H](CCCN=C(N)N)C(=O)O)C(C)C)C(C)C)[C@@H](C)O)C(C)C)C(C)C [RIIDLLWRVRRPQKPKFVTVWVR]
MIC (Escherichia coli E44813): 8.44 µM (≈ 25 µg/mL)
MIC [21]: 1.56 µM (≈ 4.62 µg/mL)
MIC [22]: 16 µM (≈ 47.4 µg/mL)
MIC [23]: 1.77 µM (≈ 5.23 µg/mL)
MIC [24]: 1.05 µM (≈ 3.12 µg/mL)
MIC [25]: 0.4 µM (≈ 1.19 µg/mL)
MIC [26]: 2 µM (≈ 5.93 µg/mL)
MIC [27]: 0.527 µM (≈ 1.56 µg/mL)
MIC (Pasteurella multocida): 6.8 µM (≈ 20.1 µg/mL)
MIC [16]: 1.56 µM (≈ 4.62 µg/mL)
MIC [28]: ≥ 42.2 µM
MIC [29]: 4 µM (≈ 11.9 µg/mL)
MIC [1]: 0.0165 µM (≈ 0.0489 µg/mL)
MIC [30]: 4 µM (≈ 11.9 µg/mL)
MIC [2]: 4 µM (≈ 11.9 µg/mL)
MIC [31]: 0.527 µM (≈ 1.56 µg/mL)
MIC [32]: 1.05 µM (≈ 3.12 µg/mL)
MIC [33]: 8.44 µM (≈ 25 µg/mL)
MIC [34]: 4 µM (≈ 11.9 µg/mL)
MIC [18]: 1.56 µM (≈ 4.62 µg/mL)
MIC [19]: 1.56 µM (≈ 4.62 µg/mL)
MIC [35]: 8 µM (≈ 23.7 µg/mL)
MIC [20]: 3.12 µM (≈ 9.26 µg/mL)
